# In patent US8916681B2, “Compound, use and method” (Medical Research Council, priority 2007, dated 2014):
# Non-standard residues stand in square brackets, D forms with d. Residues, ends and D or L forms follow the SMILES beside them.
# What was measured:
# Type in all cases: cell-based
# GPR54 [1] = target: T1, GPR54 (Homo sapiens, UniProt Q969F8); test: Inositol phosphate (IP) stimulation assay in CHO/gpr-54 cells; set-up: G. Vassart, Univ; Brussels; settings: CHO cells stably-expressing human gpr-54
# Description: Inositol-3-phoshate Stimulation Assay—Cell monolayers had 0.5 mls HEPES modified DMEM supplemented with 1% Penicillin/Streptomycin for 30 mins at 37° C. to block IP3 breakdown. Cells were then stimulated with 0.5 mls Kisspeptin-10 and analogues (10 pM-1 uM) diluted at 1:1000 in the above media for 1 hr at 37° C., then in 10 mM Formic acid at 4° C. for 1 hr to lyse cells. Lysate was then transferred to plastic tubes containing 0.5 mls Dowex resin to bind the radioactive IP3 and the resin was then washed with 1 ml H2O. The resin was then washed with 60 mM NH4 formate/5 mM Sodium tetraborate followed by 1M NH4 formate/0.1M Formic acid to release the bound radiation. Then 800 μls of the radioactive solution were transferred to scintillation vials containing 2.5 mls scintillation fluid and radioactivity counted on a Beta counter for 60 seconds.
# IP stimulation refers to intrinsic residual agonist activity where estimateable.
# The cells were maintained in Dulbecco's modified Eagle's medium (DMEM; Sigma) supplemented with 10% fetal calf serum, 2% glutamine and 1% penicillin (10,000 units/ml)/streptomycin (10,000 mg/ml) at 37° C. in a humidified 5% CO2 atmosphere.
# Prior to stimulation CHO/gpr-54 cells were washed twice with Dulbecco's phosphate-buffered saline (DPBS; without calcium or magnesium) then incubated overnight with ^3H-myoinositol, labeled HEPES-modified DMEM with 1% penicillin/streptomycin at 37° C. HEPES-modified DMEM supplemented with 1% penicillin/streptomycin and 1% lithium chloride (0.5 ml) was added to cells for 30 min at 37° C. to block IP hydrolysis. Cells were then stimulated with 0.5 ml kisspeptin-10 and analogues (10 pM-1 μM) diluted at 1:100 in the above media for 1 h at 37° C., then with 10 mM formic acid at 4° C. for 1 h to lyse cells. Lysates were transferred to plastic tubes containing 0.5 ml Dowex resin to bind the radioactive IP and the resin was then washed with 1 ml water. The resin was next washed with 60 mM ammonium formate/5 mM sodium tetraborate. followed by 1M ammonium formate/0.1M formic acid to release the bound radiation. Then 800 μl of the radioactive solution were transferred to scintillation vials containing 2.5 ml scintillation fluid and radioactivity counted on a Beta counter for 60 sec. Experiments were repeated 3-5 times. IP production was plotted as mean values±SEM and analyzed by using a Student's t-Test (p≧0.05).
# GPR54 [2] = target: T1, GPR54; test: Inositol phosphate (IP) antagonism assay: inhibition of 10 nM kisspeptin-10 stimulation of IP in CHO/gpr-54 cells; set-up: G. Vassart, Univ; Brussels; settings: for IC50 / Inhibition of IP stimulation by 10 nM Agonist: % Inhibition of Max: CHO cells, 10 nM kisspeptin-10; for IC50: unit inferred, given in M
# Description: Inositol-3-phoshate Antagonistic Assay—Cell monolayers had 0.5 mls HEPES modified DMEM supplemented with […] for 30 mins at 37° C. to block IP3 breakdown. Cells were then stimulated with 0.25 mls 10 nM Kisspeptin-10 plus 0.25 mls of 10 nM Kisspeptin-10 or analogues (10 pM-10 uM) diluted at 1:1000 in the above media for 1 hr at 37° C., then in 10 mM Formic acid at 4° C. for 1 hr to lyse cells. Lysate was then transferred to plastic tubes containing 0.5 mls Dowex resin to bind the radioactive IP3 and the resin was then washed with 1 ml H2O. The resin was then washed with 60 mM NH4 formate/5 mM Sodium tetraborate followed by 1M NH4 formate/0.1M Formic acid to release the bound radiation. Then 800 μls of the radioactive solution were transferred to scintillation vials containing 2.5 mls scintillation fluid and radioactivity counted on a Beta counter for 60 seconds.
# Chinese hamster ovary (CHO) cells stably-expressing the human gpr-54 receptor (CHO/gpr-54) were obtained from Prof. G. Vassart, Univ. Brussels. The cells were maintained in Dulbecco's modified Eagle's medium (DMEM; Sigma) supplemented with 10% fetal calf serum, 2% glutamine and 1% penicillin (10,000 units/ml)/streptomycin ([…]) at 37° C. in a humidified 5% CO2 atmosphere.
# Experiments were repeated 3-5 times. IP production was plotted as mean values±SEM and analyzed using a Student's t-Test ([…]).
# [3] = test system: HUVECs (Human Umbilical Vein Endothelial Cells); test: Cell migration (wound healing) assay in HUVECs; settings: 22 hrs
# Description: Human Umbilical Vein Endothelial Cells (HUVECs) isolated from neonatal umbilical cord were used as they endogenously express gpr-54, which is though to be involved in cell migration in the placenta. Chinese hamster ovary (CHO) cells which stably express the human gpr-54 receptor were used as a model cell line for wound healing assays. […] Complete media was added along with 1 nM Kisspeptin-10 for HUVECs and 100 nM Kisspeptin-10 for CHO cells, the optimal concentrations to inhibit cell migration (wound healing) in each cell type, in the presence and absence of antagonist 233, 234, 273 and 276 for HUVECs and 234 for CHOs. […] Cells were photographed on the axiovert 2000 at 20× magnification in phase contrast (Hori et al., 2001. Metastin suppresses the motility and growth of CHO cells transfected with its receptor. Biochem Biophys Res Commun 286, 958-963; Stafford et al., 2002, Identification and characterization of mouse metastasis-suppressor KiSS1 and its G-protein-coupled receptor. Cancer Res 62, 5399-5404).
# T1 sequence (Q969F8 whole entry): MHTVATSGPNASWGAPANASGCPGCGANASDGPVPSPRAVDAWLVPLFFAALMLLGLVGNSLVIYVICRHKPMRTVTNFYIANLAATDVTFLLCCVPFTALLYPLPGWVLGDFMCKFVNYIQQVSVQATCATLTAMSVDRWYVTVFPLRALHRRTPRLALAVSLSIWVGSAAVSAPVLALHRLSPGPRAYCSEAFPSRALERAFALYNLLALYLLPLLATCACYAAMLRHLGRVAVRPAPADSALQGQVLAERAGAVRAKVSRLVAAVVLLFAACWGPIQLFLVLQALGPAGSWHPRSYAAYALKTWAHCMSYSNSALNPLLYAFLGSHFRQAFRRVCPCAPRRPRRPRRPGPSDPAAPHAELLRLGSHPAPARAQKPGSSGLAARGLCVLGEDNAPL
stimulation of IP by the peptide alone (GPR54 [1]),IC50 (GPR54 [2]),Inhibition of IP stimulation by 10 nM Agonist: % Inhibition of Max (GPR54 [2]),kisspeptin antagonist function (GPR54 [2]; with N-terminal Antennapedia heptapeptide),Structure (SMILES),inhibition of migration by 1 nM Kisspeptin in the presence of peptide [3]
little or no stimulation,50 nM,,,CC(=O)N[C@H](Cc1ccc(O)cc1)C(=O)N[C@@H](CC(N)=O)C(=O)N[C@@H](Cc1c[nH]c2ccccc12)C(=O)N[C@@H](CC(N)=O)C(=O)NCC(=O)N[C@@H](Cc1ccccc1)C(=O)NCC(=O)N[C@H](Cc1c[nH]c2ccccc12)C(=O)N[C@@H](CCCNC(=N)N)C(=O)N[C@@H](Cc1ccccc1)C(N)=O [Peptide 230] (Ac-[dY]NWNGFG[dW]RF-NH2),
little or no stimulation,30 nM,,,CC(=O)N[C@@H](Cc1ccc(O)cc1)C(=O)N[C@H](CC(N)=O)C(=O)N[C@@H](Cc1c[nH]c2ccccc12)C(=O)N[C@@H](CC(N)=O)C(=O)NCC(=O)N[C@@H](Cc1ccccc1)C(=O)NCC(=O)N[C@H](Cc1c[nH]c2ccccc12)C(=O)N[C@@H](CCCNC(=N)N)C(=O)N[C@@H](Cc1ccccc1)C(N)=O [Peptide 232] (Ac-Y[dN]WNGFG[dW]RF-NH2),
little or no stimulation,20 nM,,,CC(=O)N[C@@H](Cc1ccc(O)cc1)C(=O)N[C@@H](CC(N)=O)C(=O)N[C@@H](Cc1c[nH]c2ccccc12)C(=O)N[C@@H](CC(N)=O)C(=O)N[C@H](C)C(=O)N[C@@H](Cc1ccccc1)C(=O)NCC(=O)N[C@H](Cc1c[nH]c2ccccc12)C(=O)N[C@@H](CCCNC(=N)N)C(=O)N[C@@H](Cc1ccccc1)C(N)=O [Peptide 233] (Ac-YNWN[dA]FG[dW]RF-NH2),10%
little or no stimulation,10 nM,,,CC(=O)N[C@@H](Cc1ccc(O)cc1)C(=O)N[C@@H](CC(N)=O)C(=O)N[C@H](C)C(=O)N[C@@H](CC(N)=O)C(=O)NCC(=O)N[C@@H](Cc1ccccc1)C(=O)NCC(=O)N[C@H](Cc1c[nH]c2ccccc12)C(=O)N[C@@H](CCCNC(=N)N)C(=O)N[C@@H](Cc1ccccc1)C(N)=O [Peptide 235] (Ac-YN[dA]NGFG[dW]RF-NH2),
little or no stimulation,50 nM,,,CC(=O)N[C@@H](Cc1ccc(O)cc1)C(=O)N[C@H](C)C(=O)N[C@@H](Cc1c[nH]c2ccccc12)C(=O)N[C@@H](CC(N)=O)C(=O)NCC(=O)N[C@@H](Cc1ccccc1)C(=O)NCC(=O)N[C@H](Cc1c[nH]c2ccccc12)C(=O)N[C@@H](CCCNC(=N)N)C(=O)N[C@@H](Cc1ccccc1)C(N)=O [Peptide 236] (Ac-Y[dA]WNGFG[dW]RF-NH2),
,,66%,,CC(=O)N[C@H](Cc1ccc(O)cc1)C(=O)N[C@@H](CC(N)=O)C(=O)N[C@@H](Cc1c[nH]c2ccccc12)C(=O)N[C@@H](CC(N)=O)C(=O)NCC(=O)N[C@H](Cc1c[nH]c2ccccc12)C(=O)NCC(=O)N[C@H](Cc1c[nH]c2ccccc12)C(=O)N[C@@H](CCCNC(=N)N)C(=O)N[C@@H](Cc1ccccc1)C(N)=O [Peptide 245] (Ac-[dY]NWNG[dW]G[dW]RF-NH2),
,50 nM,80%,,CC(=O)N[C@H](C)C(=O)N[C@@H](CC(N)=O)C(=O)N[C@@H](Cc1c[nH]c2ccccc12)C(=O)N[C@@H](CC(N)=O)C(=O)NCC(=O)N[C@H](Cc1c[nH]c2ccccc12)C(=O)NCC(=O)N[C@H](Cc1c[nH]c2ccccc12)C(=O)N[C@@H](CCCNC(=N)N)C(=O)N[C@@H](Cc1ccccc1)C(N)=O [Peptide 246] (Ac-[dA]NWNG[dW]G[dW]RF-NH2),
,,80%,,CC(=O)N[C@H](C)C(=O)N[C@@H](CC(N)=O)C(=O)N[C@@H](Cc1c[nH]c2ccccc12)C(=O)N[C@@H](CC(N)=O)C(=O)N[C@@H](CO)C(=O)N[C@@H](Cc1ccccc1)C(=O)NCC(=O)N[C@H](Cc1c[nH]c2ccccc12)C(=O)N[C@@H](CCCNC(=N)N)C(=O)N[C@@H](Cc1ccccc1)C(N)=O [Peptide 247] (Ac-[dA]NWNSFG[dW]RF-NH2),
,,64%,,CC(=O)N[C@H](C)C(=O)N[C@@H](CC(N)=O)C(=O)N[C@@H](Cc1c[nH]c2ccccc12)C(=O)N[C@@H](CC(N)=O)C(=O)NCC(=O)N[C@@H](Cc1ccccc1)C(=O)NCC(=O)N[C@@H](Cc1c[nH]c2ccccc12)C(=O)N[C@@H](CCCNC(=N)N)C(=O)N[C@@H](Cc1ccccc1)C(N)=O [Peptide 248] (Ac-[dA]NWNGFGWRF-NH2),
,5 nM,57%,retains kisspeptin antagonist function,"CSCC[C@H](NC(=O)[C@H](CCCNC(=N)N)NC(=O)[C@H](CCCNC(=N)N)NC(C)=O)C(=O)N[C@@H](CCCCN)C(=O)N[C@@H](Cc1c[nH]c2ccccc12)C(=O)N[C@@H](CCCCN)C(=O)N[C@@H](CCCCN)C(=O)N[C@@H](Cc1ccc(O)cc1)C(=O)N[C@H](C)C(=O)N[C@@H](CC(N)=O)C(=O)N[C@@H](Cc1c[nH]c2ccccc12)C(=O)N[C@@H](CC(N)=O)C(=O)NCC(=O)N[C@@H](Cc1ccccc1)C(=O)NCC(=O)N[C@H](Cc1c[nH]c2ccccc12)C(=O)N[C@@H](CCCNC(=N)N)C(=O)N[C@@H](Cc1ccccc1)C(N)=O [Peptide 271, ac.R-R-M-K-W-K-K-Y-(D)A-N-W-N-G-F-G-(D)W-R-F.z] (Ac-RRMKWKKY[dA]NWNGFG[dW]RF-NH2)",
,4 nM,79%,,CC(=O)N[C@H](C)C(=O)N[C@@H](CC(N)=O)C(=O)N[C@@H](Cc1c[nH]c2ccccc12)C(=O)N[C@@H](CC(N)=O)C(=O)N[C@H](CO)C(=O)N[C@@H](Cc1ccccc1)C(=O)NCC(=O)N[C@H](Cc1c[nH]c2ccccc12)C(=O)N[C@@H](CCCNC(=N)N)C(=O)N[C@@H](Cc1ccccc1)C(N)=O [Peptide 273] (Ac-[dA]NWN[dS]FG[dW]RF-NH2),10%
,0.1 nM,73%,,CC(=O)N[C@H](C)C(=O)N[C@@H](CC(N)=O)C(=O)N[C@@H](Cc1c[nH]c2ccccc12)C(=O)N[C@@H](CC(N)=O)C(=O)N1CCC[C@H]1C(=O)N[C@@H](Cc1ccccc1)C(=O)NCC(=O)N[C@H](Cc1c[nH]c2ccccc12)C(=O)N[C@@H](CCCNC(=N)N)C(=O)N[C@@H](Cc1ccccc1)C(N)=O [Peptide 274] (Ac-[dA]NWNPFG[dW]RF-NH2),
,> 100 nM,44%,,CC(=O)N[C@H](C)C(=O)N[C@@H](CC(N)=O)C(=O)N[C@@H](Cc1c[nH]c2ccccc12)C(=O)N[C@@H](CC(N)=O)C(=O)N1CCC[C@@H]1C(=O)N[C@@H](Cc1ccccc1)C(=O)NCC(=O)N[C@H](Cc1c[nH]c2ccccc12)C(=O)N[C@@H](CCCNC(=N)N)C(=O)N[C@@H](Cc1ccccc1)C(N)=O [Peptide 275] (Ac-[dA]NWN[dP]FG[dW]RF-NH2),
,,65%,,CC(=O)N[C@H](C)C(=O)N[C@@H](CC(N)=O)C(=O)N[C@@H](Cc1c[nH]c2ccccc12)C(=O)N[C@@H](CC(N)=O)C(=O)NCC(=O)N[C@@H](Cc1ccccc1)C(=O)NCC(=O)N[C@H](CC(C)C)C(=O)N[C@@H](CCCNC(=N)N)C(=O)N[C@@H](Cc1ccccc1)C(N)=O [Peptide 276] (Ac-[dA]NWNGFG[dL]RF-NH2),
,,57%,,CC(=O)N[C@H](C)C(=O)N[C@@H](CC(N)=O)C(=O)N[C@@H](Cc1c[nH]c2ccccc12)C(=O)N[C@@H](CC(N)=O)C(=O)N[C@H](C)C(=O)N[C@@H](Cc1ccccc1)C(=O)NCC(=O)N[C@@H](CC(C)C)C(=O)N[C@@H](CCCNC(=N)N)C(=O)N[C@@H](Cc1ccccc1)C(N)=O [Peptide 277] (Ac-[dA]NWN[dA]FGLRF-NH2),
,> 200 nM,47%,,CC(=O)N[C@H](C)C(=O)N[C@@H](CC(N)=O)C(=O)N[C@@H](Cc1c[nH]c2ccccc12)C(=O)N[C@@H](CC(N)=O)C(=O)NCC(=O)N[C@@H](Cc1ccccc1)C(=O)NCC(=O)N[C@@H](CC(C)C)C(=O)N[C@H](CCCNC(=N)N)C(=O)N[C@@H](Cc1ccccc1)C(N)=O [Peptide 278] (Ac-[dA]NWNGFGL[dR]F-NH2),
